US20170232013A1, “COMPOSITIONS AND METHODS FOR THE TREATMENT OF MUSCULOSKELETAL RELATED DISEASES AND DISORDERS USING METAL ION-CITRATE ANALOG COMPLEXES” (The Charlotte-Mecklenburg Hospital Authority d/b/a …, priority 2011, published 2017)

Tests used:
Hartley guinea pigs [1] = test: Subchondral bone mineral density by X-ray densitometry; assay type: in vivo
Protocol: The bone mineral density of subchondral bone of these same Hartley guinea pigs was evaluated using a X-ray densitometry.

Hartley guinea pigs [2] = test: Skyscan Micro-CT of distal femurs of Hartley guinea pigs; assay type: in vivo
Protocol: The distal femurs of the Hartley guinea pigs were also analyzed with Skyscan Micro-CT. The femur of untreated Hartley guinea pigs had less bone volume and larger marrow space than the femur of CaPC-treated Hartley guinea pigs. Micro-CT scan of the femur of Hartley guinea pigs. […] The area showing less trabecular bone and larger marrow space is indicated by a red arrow. In the right image of FIG. 3, the femur of a CaPC-treated Hartley guinea pig is shown.
Femurs, previously stored in 70% ethanol, were cut close to the distal femur condyle. The specimens were left to dry 48-hr before being scanned using Skyscan Micro-CT. A 3-D model was built in the ANT model building program and bisected with a plane down the lateral/midline. Using the model building program, a separate dataset was built forming 30 cross sections on either side of the plane. With this dataset, measurements were taken with the 3D-Calc program. A rectangular region of interest was applied to all 60 sections. The region of interest was placed approximately 0.5 cm down from the growth plate in the central part of the trabeculae and extended downward.

[3] = system: meniscus derived from osteoarthritis patients; test: Microarray gene expression in cultured minced meniscus; assay type: cell-based, human; conditions: 7 day treatment, Skeletal Development gene
Text: In this example, meniscus derived from osteoarthritis patients were minced into small pieces and cultured in the absence or presence of magnesium phosphcitrate (MgPC). After 7 day treatment, RNA was extracted and gene expression was investigated using microarray.

Hartley guinea pigs [4] = test: High definition X-ray of front limbs of Hartley guinea pigs after eight months of CaPC; assay type: in vivo; conditions: 30 mg/kg intraperitoneal twice per week
Protocol: In this example, three month old Hartley guinea pigs were administered 30 mg/kg calcium phosphorcitrate (CaPC) or saline via intraperitoneal injection twice per week. Eight months later, the guinea pigs were sacrificed and examined with high definition X-ray. […] The bone mineral content of the front limb of a CaPC-treated Hartley guinea pig (left photo, the green arrow) was higher than the bone mineral content of a front limb of an untreated Hartley guinea pig (left photo, the green arrow). […] The diameter of the front limb was lager and the bone mineral content was higher in CaPC-treated Hartley guinea pigs that that in untreated Hartley guinea pigs.

Substance | Subchondral bone mineral density (Hartley guinea pigs [1]; Pair one, untreated 0.143) | Subchondral bone mineral density (Hartley guinea pigs [1]; Pair three, untreated 0.150) | Subchondral bone mineral density (Hartley guinea pigs [1]; Pair two, untreated 0.146) | trabecular bone and marrow space of femur (Micro-CT image) (Hartley guinea pigs [2]; 30 mg/kg intraperitoneal twice per week, eight months, vs untreated) | Bone Volume (Hartley guinea pigs [2]; distal femur, region of interest over 60 sections, untreated 0.19 + 0.04) | Trabecular Number (Hartley guinea pigs [2]; distal femur, region of interest over 60 sections, untreated 0.43 + 0.08) | Tissue Volume (Hartley guinea pigs [2]; distal femur, region of interest over 60 sections, untreated 10.76 + 1.9) | Trabecular Thickness (Hartley guinea pigs [2]; distal femur, region of interest over 60 sections, untreated 32.90 + 3.6) | Differential Expression ACAN [3] | Differential Expression COL2A1 [3] | Differential Expression COL11A1 [3] | formation of bone (Hartley guinea pigs [4]; vs saline) | bone mineral content of the front limb (Hartley guinea pigs [4]; vs untreated) | diameter of the front limb (Hartley guinea pigs [4]; vs untreated)
calcium phosphorcitrate [CaPC] | 0.157 g/cm^2 | 0.181 g/cm^2 | 0.161 g/cm^2 | more trabecular bone and less marrow space | 0.49 + 0.09 | 1.07 + 0.15 | 10.76 + 1.9 | 42.00 + 4.9 | significantly induced | significantly induced | significantly induced | promoted the formation of bone | higher | larger
magnesium phosphcitrate [MgPC] | – | – | – | – | – | – | – | – | 2.0 | 2.0 | 2.7 | – | – | –
